Test results reported in patent US8796234B2, “Crosslinking branched molecule through thiol-disulfide exchange to form hydrogel” (Agency for Science, Technology and Research, priority 2009, dated 2014).

Assay: Drug loading capacity of sample hydrogel
Assay type: physicochemical
Settings: poly(BAC2-AEPZ1)-PEG hydrogel
Protocol: Aqueous solutions of 5 wt % poly(BAC2-AEPZ1)-PEG was prepared and left to equilibrate overnight at room temperature. Appropriate amounts of doxorubicin (Dox) were loaded to make the concentration of Dox in the polymer solution 5 mg mL^−1. Subsequently, small amount of 5M sodium hydroxide (NaOH) was added in and was being vortexed for a few minutes to adjust pH to more than 12, and the solutions turn blue. Then, the solution was left undisturbed during hydrogel formation for predetermined time. After predetermined time, a slight in excessive of 5M HCl was added to neutralize the hydrogel to keep the hydrogel stable, and the hydrogel turned red. […]
The results were presented in terms of cumulative release as a function of time: Cumulative amount release (%)=(Mt/M∞) where Mt is the amount of Dox released from the hydrogel at time t and M∞ is the estimate amount of Dox loaded in the hydrogel and was calculated from the weight difference of the initial Dox solution concentration and the remaining Dox solution concentration (combining rinsing water and remaining solution expelled from the hydrogel) after loading.
1 mL of Pac/methanol was extracted from saturated stock solution (50 mg/mL) and added to a vial. […] The column effluent was detected UV spectrophotometrically at wavelength of 227 nm. […]

loading capacity of drug in the sample hydrogel | Structure (SMILES)
5-10% | COc1cccc2c1C(=O)c1c(O)c3c(c(O)c1C2=O)C[C@@](O)(C(=O)CO)C[C@@H]3O[C@H]1C[C@H](N)[C@H](O)[C@H](C)O1 [Dox, doxorubicin]
30-50% | CC(=O)O[C@H]1C(=O)[C@@]2(C)[C@H]([C@H](OC(=O)c3ccccc3)[C@]3(O)C[C@H](OC(=O)[C@H](O)[C@@H](NC(=O)c4ccccc4)c4ccccc4)C(C)=C1C3(C)C)[C@]1(OC(C)=O)CO[C@@H]1C[C@@H]2O [Pac, Paclitaxel]
